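Compound exposure: 48 hours, 5 concentrations, 96-well plates. Abbreviation: GI50, concentration required for 50% inhibition of growth. TGI: concentration producing complete growth inhibition.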
What was measured:
Experiment in all cases: NCI-60 cell line screen, 48 h
SF-539 CNS = system: SF-539 CNS
OVCAR-3 ovarian = system: OVCAR-3 ovarian
MOLT-4 leukemia = system: MOLT-4 leukemia
SW-620 colon = system: SW-620 colon
A549 NSCLC = system: A549 NSCLC
SR leukemia = system: SR leukemia
MDA-MB-231 breast = system: MDA-MB-231 breast
NCI/ADR-RES ovarian = system: NCI/ADR-RES ovarian
PC-3 prostate = system: PC-3 prostate
BT-549 breast = system: BT-549 breast

In the case of `C/C(CC(=O)Nc1ccc([N+](=O)[O-])cc1)=N/N=C(N)N`, the TGI (SF-539 CNS) is reported as greater than 100 µM, the TGI (OVCAR-3 ovarian) is reported as greater than 100 µM and the TGI (MOLT-4 leukemia) is reported as greater than 100 µM. It also gave a TGI (SW-620 colon) greater than 100 µM and a TGI (A549 NSCLC) greater than 100 µM.
In the case of `O=C1CSc2ccncc2N1`, the TGI (SF-539 CNS) is reported as greater than 100 µM, the TGI (OVCAR-3 ovarian) is reported as greater than 100 µM and the TGI (MOLT-4 leukemia) is reported as greater than 100 µM. It also gave a TGI (SR leukemia) greater than 100 µM, a TGI (SW-620 colon) greater than 100 µM and a TGI (A549 NSCLC) greater than 100 µM.
Work on `Cc1ccc(S(=O)(=O)NC(=O)Nc2nc(Cl)cc(Cl)n2)cc1` yielded a TGI (SF-539 CNS) greater than 100 µM, a TGI (OVCAR-3 ovarian) greater than 100 µM and a TGI (MOLT-4 leukemia) greater than 100 µM. For the same compound, the TGI (SW-620 colon) was greater than 100 µM and the TGI (A549 NSCLC) was greater than 100 µM.
For `Cn1c(-c2ccccc2)c/c(=N\NS(C)(=O)=O)c2cc(S(=O)(=O)O)ccc21`, the TGI (SF-539 CNS) was greater than 100 µM, the TGI (OVCAR-3 ovarian) was greater than 100 µM and the TGI (MOLT-4 leukemia) was greater than 100 µM. For the same compound, the TGI (SR leukemia) was greater than 100 µM, the TGI (SW-620 colon) was greater than 100 µM and the TGI (A549 NSCLC) was greater than 100 µM.
`O=[N+]([O-])c1ccc(C2N3CCCCC3[C@@H]3c4[nH]c5ccccc5c4CCN23)cc1` (stereo partly specified) was tested, and the TGI (SF-539 CNS) was 29.9 µM, the TGI (OVCAR-3 ovarian) was 38.6 µM and the TGI (MOLT-4 leukemia) was 49.6 µM. For the same compound, the TGI (SR leukemia) was greater than 100 µM, the TGI (SW-620 colon) was greater than 100 µM and the TGI (A549 NSCLC) was greater than 100 µM.
`CC(C)(C)C1CCN(C(=O)c2ccccc2)CC1` was tested, and the TGI (SF-539 CNS) was greater than 100 µM, the TGI (OVCAR-3 ovarian) was greater than 100 µM and the TGI (MOLT-4 leukemia) was greater than 100 µM. It also gave a TGI (SR leukemia) greater than 100 µM, a TGI (SW-620 colon) greater than 100 µM and a TGI (A549 NSCLC) greater than 100 µM.
For `CCC1=C[C@H]2CN(CCc3c([nH]c4ccccc34)[C@@](C(=O)OC)(c3cc4c(cc3OC)N(C)[C@H]3[C@@](O)(C(=O)OC)[C@H](OC(C)=O)[C@]5(CC)[C@@H]6C[C@@H]6CN6CC[C@]43[C@@H]65)C2)C1`, the GI50 (MDA-MB-231 breast) was 0.0864 µM, the TGI (MDA-MB-231 breast) was 1.88 µM and the GI50 (SF-539 CNS) was 0.054 µM. It also gave a TGI (SF-539 CNS) of 0.179 µM, a GI50 (NCI/ADR-RES ovarian) of 0.161 µM and a TGI (NCI/ADR-RES ovarian) of 1.42 µM. It also gave a GI50 (OVCAR-3 ovarian) of 0.0105 µM, a TGI (OVCAR-3 ovarian) of 2.59 µM and a GI50 (MOLT-4 leukemia) of 0.0737 µM. The TGI (MOLT-4 leukemia) was greater than 25 µM, the GI50 (SW-620 colon) was 0.0428 µM and the TGI (SW-620 colon) was 3.89 µM. The GI50 (A549 NSCLC) was 0.0396 µM, the TGI (A549 NSCLC) was 9.56 µM and the GI50 (PC-3 prostate) was 0.0178 µM. The TGI (PC-3 prostate) was 4.24 µM, the GI50 (BT-549 breast) was 0.106 µM and the TGI (BT-549 breast) was 4.29 µM.
`Cn1c(C2CC(C)(C)c3c2c2ccccc2n3C)cc2ccccc21` (stereo unspecified) gave a TGI (SF-539 CNS) greater than 304 µM, a TGI (OVCAR-3 ovarian) greater than 304 µM and a TGI (MOLT-4 leukemia) greater than 304 µM. The TGI (SR leukemia) was greater than 304 µM, the TGI (SW-620 colon) was greater than 304 µM and the TGI (A549 NSCLC) was greater than 304 µM.
Work on `COc1cc([C@@H]2c3cc4c(cc3[C@@H](NC(=O)c3ccc([N+](=O)[O-])cc3)C3COC(=O)[C@@H]32)OCO4)cc(OC)c1O` (stereo partly specified) yielded a TGI (SF-539 CNS) of 2.06 µM, a TGI (OVCAR-3 ovarian) of 4.81 µM and a TGI (MOLT-4 leukemia) of 1.31 µM. The TGI (SW-620 colon) was 4.21 µM and the TGI (A549 NSCLC) was 1.53 µM.
Compound `N#Cc1ccccc1/C=N/O` has a TGI (SF-539 CNS) greater than 100 µM, a TGI (OVCAR-3 ovarian) greater than 100 µM and a TGI (MOLT-4 leukemia) greater than 100 µM. It also gave a TGI (SR leukemia) greater than 100 µM, a TGI (SW-620 colon) greater than 51.8 µM and a TGI (A549 NSCLC) greater than 100 µM.
`Cc1cc2c(=O)cc(-c3ccc(C(=O)O)cc3)oc2c(C(=O)O)c1C` was tested, and the TGI (SF-539 CNS) was greater than 100 µM, the TGI (OVCAR-3 ovarian) was greater than 100 µM and the TGI (MOLT-4 leukemia) was greater than 100 µM. It also gave a TGI (SR leukemia) greater than 100 µM, a TGI (SW-620 colon) greater than 100 µM and a TGI (A549 NSCLC) greater than 100 µM.
For `O=C1CC23CC(=O)CC2(C1)c1ccccc1C3=O` (stereo unspecified), the TGI (SF-539 CNS) was greater than 100 µM, the TGI (OVCAR-3 ovarian) was greater than 100 µM and the TGI (MOLT-4 leukemia) was greater than 100 µM. For the same compound, the TGI (SW-620 colon) was greater than 100 µM and the TGI (A549 NSCLC) was greater than 100 µM.
Compound `O=CN/C=C/c1ccccc1O` has a TGI (SF-539 CNS) greater than 100 µM, a TGI (OVCAR-3 ovarian) greater than 100 µM and a TGI (MOLT-4 leukemia) greater than 100 µM. For the same compound, the TGI (SR leukemia) was greater than 100 µM, the TGI (SW-620 colon) was greater than 100 µM and the TGI (A549 NSCLC) was greater than 100 µM.
For `N=c1c2c(=O)n3c(nc2nc2sc4ccc(Cl)cc4n12)-c1ccccc1Sc1ccccc1-3`, the GI50 (MDA-MB-231 breast) was 2.56 µM, the TGI (MDA-MB-231 breast) was 16.2 µM and the GI50 (SF-539 CNS) was 3.34 µM. The TGI (SF-539 CNS) was 18.4 µM, the GI50 (NCI/ADR-RES ovarian) was 2.05 µM and the TGI (NCI/ADR-RES ovarian) was 7.5 µM. It also gave a GI50 (OVCAR-3 ovarian) of 1.89 µM, a TGI (OVCAR-3 ovarian) of 8.27 µM and a GI50 (MOLT-4 leukemia) of 1.77 µM. It also gave a TGI (MOLT-4 leukemia) of 9.64 µM, a GI50 (SR leukemia) of 2.15 µM and a TGI (SR leukemia) of 9.14 µM. The GI50 (SW-620 colon) was 3.05 µM, the TGI (SW-620 colon) was 16.1 µM and the GI50 (A549 NSCLC) was 1.98 µM. It also gave a TGI (A549 NSCLC) of 12.5 µM, a GI50 (PC-3 prostate) of 2.6 µM and a TGI (PC-3 prostate) greater than 100 µM.
With `O=C(Cc1nc2ccccc2s1)NC12CC3CC(CC(C3)C1)C2` the TGI (SF-539 CNS) was greater than 100 µM, the TGI (MOLT-4 leukemia) was greater than 100 µM and the TGI (SR leukemia) was greater than 100 µM. It also gave a TGI (SW-620 colon) greater than 100 µM and a TGI (A549 NSCLC) greater than 100 µM.
In the case of `C=C1CCC2C(C)(CO)C(O)CCC2(C)C1CC(O)C1=CCOC1=O` (stereo unspecified), the TGI (SF-539 CNS) is reported as 55 µM, the TGI (OVCAR-3 ovarian) is reported as 58.9 µM and the TGI (MOLT-4 leukemia) is reported as greater than 100 µM. For the same compound, the TGI (SR leukemia) was 65.9 µM, the TGI (SW-620 colon) was 51.3 µM and the TGI (A549 NSCLC) was greater than 100 µM.
`FC(F)(F)c1ccccc1C=NC12CC3CC(CC(C3)C1)C2` was tested, and the TGI (SF-539 CNS) was greater than 100 µM, the TGI (OVCAR-3 ovarian) was greater than 100 µM and the TGI (MOLT-4 leukemia) was greater than 100 µM. For the same compound, the TGI (SR leukemia) was greater than 100 µM, the TGI (SW-620 colon) was greater than 100 µM and the TGI (A549 NSCLC) was greater than 100 µM.
`C#CCOc1c(OC)cc(C(=O)/C(C)=C/c2cccc(N=[N+]=[N-])c2)cc1OC` gave a GI50 (MDA-MB-231 breast) of 0.695 µM, a TGI (MDA-MB-231 breast) of 26.1 µM and a GI50 (SF-539 CNS) of 0.13 µM. It also gave a TGI (SF-539 CNS) of 0.478 µM, a GI50 (NCI/ADR-RES ovarian) of 0.119 µM and a TGI (NCI/ADR-RES ovarian) greater than 100 µM. For the same compound, the GI50 (OVCAR-3 ovarian) was 0.0519 µM, the TGI (OVCAR-3 ovarian) was 0.291 µM and the GI50 (MOLT-4 leukemia) was 0.362 µM. The TGI (MOLT-4 leukemia) was greater than 100 µM, the GI50 (SW-620 colon) was 0.0503 µM and the TGI (SW-620 colon) was greater than 100 µM. The GI50 (A549 NSCLC) was 0.406 µM, the TGI (A549 NSCLC) was greater than 100 µM and the GI50 (PC-3 prostate) was 0.132 µM. The TGI (PC-3 prostate) was greater than 100 µM, the GI50 (BT-549 breast) was 0.131 µM and the TGI (BT-549 breast) was 7.1 µM.
With `COC(=O)c1c/c(=N\NC(=O)CC(=O)Nc2ccc(C)cc2)c2ccccc2o1` the TGI (SF-539 CNS) was greater than 100 µM, the TGI (OVCAR-3 ovarian) was greater than 100 µM and the TGI (MOLT-4 leukemia) was greater than 100 µM. For the same compound, the TGI (SR leukemia) was greater than 100 µM, the TGI (SW-620 colon) was greater than 100 µM and the TGI (A549 NSCLC) was greater than 100 µM.
With `Clc1ccc(CCn2cncn2)c(Cl)c1` the TGI (SF-539 CNS) was greater than 100 µM, the TGI (OVCAR-3 ovarian) was greater than 100 µM and the TGI (MOLT-4 leukemia) was greater than 100 µM. It also gave a TGI (SR leukemia) greater than 100 µM, a TGI (SW-620 colon) greater than 100 µM and a TGI (A549 NSCLC) greater than 100 µM.

Reference: PubChem BioAssay (NCI)
